Earlier results in US9233901B2, “Synthetic navel orangeworm pheromone composition and methods relating to production of same” (Suterra LLC, priority 2008, dated 2016).

System: major pheromone binding protein (AtraPBP)
Settings: shown in other studies (Leal et al. 2005)

For CC/C=C\C=C/CCCCCCCCCC=O [HDAL, (Z, Z)-11,13-hexadecadienal], the “affinity for binding to a major pheromone binding protein (AtraPBP)” value is given as “high affinity”.
